In patent publication US12319655B2, “RAF kinase inhibitors and methods of use thereof” (Deciphera Pharmaceuticals, LLC, priority 2021, dated 2025):
pIC50: −log10 of the molar value. Where two headings read alike, the source gives them in different places.

Assays:
[1] = biological target: B-Raf kinase (SEQ. ID NO: 2) (Homo sapiens (Human), UniProt P15056); assay: Biochemical Assay for B-Raf (1); details: Table J
Procedure, shortened: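 IC50 derived by four-parameter sigmoidal fit of percent inhibition, normalised to uninhibited and reference-inhibitor controls, using reaction rates over 4–5 h. Coupled spectrophotometric readout (NADH loss at 340 nm, 6 h, 30° C.); 1 mM ATP, 30.1 nM MEK, 0.13 nM B-Raf, pH 7.5 Tris buffer, 1% DMSO.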

A375 cells = assay: A375 Cell Proliferation Assay (1); type: cell-based; details: Homo sapiens, A-375
Procedure, shortened: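 Resazurin fluorescence (excitation 540 nm, emission 600 nm, after a further 5-6 h) gave IC50s from triplicate compound dilution series.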

H2405 cells = assay: H2405 Cell Proliferation Assay (1); type: cell-based; details: Homo sapiens, NCI-H2405
Procedure, shortened: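 Viability was read by resazurin reduction (ex 540 nm, em 600 nm; 5-6 h with 40 μL of 440 μM stock) after 67-72 h compound exposure at 37 °C.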

WM3928 cells = assay: WM3928 Cell Proliferation Assay (1); type: cell-based
Procedure, shortened: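 IC50 was derived from resazurin fluorescence (ex 540, em 600 nm) after a 6–7 h dye incubation. Before that, cells had 67–72 h of compound exposure at 37 °C, 5% CO2.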

[2] = assay version (1), read-out: BRAF (1) IC50
[3] = biochemical assay (1), read-out: BRAF (1)

Chain of B-Raf kinase (SEQ. ID NO: 2) (P15056 416-766): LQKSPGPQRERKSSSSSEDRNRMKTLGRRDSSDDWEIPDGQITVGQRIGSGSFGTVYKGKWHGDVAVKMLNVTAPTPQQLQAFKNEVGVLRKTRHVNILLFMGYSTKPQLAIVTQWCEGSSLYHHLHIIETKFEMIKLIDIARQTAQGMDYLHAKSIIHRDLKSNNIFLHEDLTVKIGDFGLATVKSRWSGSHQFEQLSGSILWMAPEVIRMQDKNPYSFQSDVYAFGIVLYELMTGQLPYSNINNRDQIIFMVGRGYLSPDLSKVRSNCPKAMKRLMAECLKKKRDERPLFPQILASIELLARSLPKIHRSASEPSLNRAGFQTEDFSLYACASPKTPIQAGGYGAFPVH

| pIC50 [1, 2] | pIC50 (A375 cells) | pIC50 (H2405 cells) | pIC50 [1, 3] | SMILES | pIC50 (WM3928 cells) |
| --- | --- | --- | --- | --- | --- |
| ≥ 7.00 | ≥ 7.00 | – | – | CC(=O)Nc1cc(-c2cc(-c3cc(NC(=O)c4ccnc(C(F)(F)F)c4)ccc3C)cc(OCCO)n2)ccn1 [Example 1, N-(3-(2′-acetamido-6-(2-hydroxyethoxy)-[2,4′-bipyridin]-4-yl)-4-methylphenyl)-2-(trifluoromethyl)isonicotinamide] | – |
| ≥ 7.00 | 6.00 to 6.30 | – | – | CC(=O)Nc1cc(-c2cc(-c3cc(NC(=O)c4cccc(C)c4)ccc3C)ccn2)ccn1 [Example 32] | – |
| ≥ 7.00 | 6.00 to 6.30 | – | – | CC(=O)Nc1cc(-c2cc(-c3cc(NC(=O)c4ccnc(C(F)(F)F)c4)cnc3C)ccn2)ccn1 [Example 36] | – |
| ≥ 7.00 | ≥ 7.00 | – | – | CC(=O)Nc1cc(-c2cc(-c3cc(NC(=O)c4cccc(C(F)(F)F)c4)cnc3C)ccn2)ccn1 [Example 37] | – |
| ≥ 7.00 | 5.00 to 6.00 | – | – | CNC(=O)c1cc(-c2cc(-c3cc(NC(=O)c4ccnc(C)c4)ccc3C)ccn2)ccn1 [Example 40] | – |
| ≥ 7.00 | 6.30 to 7.00 | ≥ 7.00 | – | CC(=O)Nc1cc(-c2cc(-c3cc(NC(=O)c4ccnc(C(F)(F)F)c4)ccc3C)nc(N(C)C)n2)ccn1 [Example 41, N-(3-(6-(2-acetamidopyridin-4-yl)-2-(dimethylamino)pyrimidin-4-yl)-4-methylphenyl)-2-(trifluoromethyl)isonicotinamide] | ≥ 7.00 |
| 6.30 to 7.00 | 5.00 to 6.00 | 6.00 to 6.30 | – | CNC(=O)c1cc(-c2cc(-c3cc(NC(=O)c4ccnc(C(F)(F)F)c4)cnc3C)ccn2)ccn1 [Example 42] | 5.00 to 6.00 |
| ≥ 7.00 | 6.00 to 6.30 | – | – | Cc1ccc(NC(=O)c2ccnc(C(C)(C)C#N)c2)cc1-c1cncc(-c2ccnc3c2CC(=O)N3)n1 [Example 43] | ≥ 7.00 |
| ≥ 7.00 | 5.00 to 6.00 | – | – | Cc1ccc(NC(=O)c2ccnc(C(F)(F)F)c2)cc1-c1ccnc(-c2ccnc(NC=O)c2)c1 [Example 46] | – |
| ≥ 7.00 | 6.00 to 6.30 | 6.30 to 7.00 | – | CNC(=O)c1cc(-c2cc(-c3cc(NC(=O)c4ccnc(C(F)F)c4)ccc3C)ccn2)ccn1 [Example 48] | 6.00 to 6.30 |
| 6.30 to 7.00 | 6.00 to 6.30 | – | – | Cc1cc(-c2cc(-c3cc(NC(=O)c4ccnc(C(C)(C)C#N)c4)ccc3C)ccn2)ccn1 [Example 49] | – |
| ≥ 7.00 | ≥ 7.00 | ≥ 7.00 | – | CNC(=O)c1cc(-c2cc(-c3cc(NC(=O)c4ccnc(C(C)(C)C#N)c4)ccc3C)ccn2)ccn1 [Example 50] | ≥ 7.00 |
| 6.30 to 7.00 | 6.30 to 7.00 | ≥ 7.00 | – | CNC(=O)c1cc(-c2cc(-c3cc(NC(=O)c4cccc(C(F)(F)F)c4)cnc3C)ccn2)ccn1 [Example 52] | 6.30 to 7.00 |
| ≥ 7.00 | 5.00 to 6.00 | – | – | CC(=O)Nc1cc(-c2cc(-c3cc(NC(=O)c4ccnc(C)c4)ccc3C)ncn2)ccn1 [Example 59] | – |
| 6.30 to 7.00 | 5.00 to 6.00 | – | – | CNC(=O)c1cc(-c2cc(-c3cc(NC(=O)c4ccnc(C)c4)ccc3C)ncn2)ccn1 [Example 60] | – |
| ≥ 7.00 | ≥ 7.00 | – | – | COCC(=O)Nc1cc(-c2cc(-c3cc(NC(=O)c4ccnc(C(C)(C)C#N)c4)ccc3C)ccn2)ccn1 [Example 61] | – |
| ≥ 7.00 | 6.30 to 7.00 | – | – | CC(=O)Nc1cc(-c2cccc(-c3cc(NC(=O)c4ccnc(C(F)(F)F)c4)cnc3C)c2)ccn1 [Example 64] | – |
| ≥ 7.00 | 6.00 to 6.30 | – | – | CC(=O)Nc1cc(-c2cc(-c3cc(NC(=O)c4ccnc(C(F)(F)F)c4)ccc3F)cc(C)n2)ccn1 [Example 65] | – |
| ≥ 7.00 | 5.00 to 6.00 | – | – | Cc1cc(-c2cc(NC(=O)c3ccnc(C(F)(F)F)c3)ccc2F)cc(-c2ccnc(NC(=O)C3CC3)c2)n1 [Example 72] | 6.30 to 7.00 |
| ≥ 7.00 | ≥ 7.00 | – | – | Cc1cc(F)c(NC(=O)c2ccnc(C(C)(C)C#N)c2)cc1-c1ccnc(-c2ccnc(NC(=O)C3CC3)c2)c1 [Example 76] | – |
| 6.30 to 7.00 | 5.00 to 6.00 | 5.00 to 6.00 | – | CNC(=O)c1cc(-c2cncc(-c3cc(C(=O)Nc4cnn(C(C)C)c4)ccc3C)n2)ccn1 [Example 81] | – |
| ≥ 7.00 | 6.30 to 7.00 | – | – | CC(=O)Nc1cc(-c2cc(-c3cc(NC(=O)c4ccnc(C(F)(F)F)c4)ccc3C)nc(C)n2)ccn1 [Example 83] | – |
| ≥ 7.00 | 6.30 to 7.00 | – | – | CC(=O)Nc1cc(-c2ccnc(-c3cc(NC(=O)c4ccnc(C(F)(F)F)c4)ccc3C)n2)ccn1 [Example 92] | – |
| – | 5.00 to 6.00 | 5.00 to 6.00 | ≥ 7.00 | Cc1ccc(NC(=O)c2cn(C(C)C)nc2C)cc1-c1cc(-c2ccnc(NC(=O)C3CC3)c2)cnn1 [Example 373] | – |

Second part, the compound before the results:

| SMILES | pIC50 [1, 2] | pIC50 (A375 cells) | pIC50 (H2405 cells) | pIC50 [1, 3] | pIC50 (WM3928 cells) |
| --- | --- | --- | --- | --- | --- |
| CC(=O)Nc1cc(-c2cc(-c3cc(NC(=O)c4ccnc(C(F)(F)F)c4)c(F)cc3C)ccn2)ccn1 [Example 2] | ≥ 7.00 | 6.30 to 7.00 | – | – | – |
| Cc1cc(F)c(NC(=O)c2ccnc(C(F)(F)F)c2)cc1-c1ccnc(-c2ccnc(NC=O)c2)c1 [Example 35] | ≥ 7.00 | 6.00 to 6.30 | – | – | – |
| Cc1ccc(NC(=O)c2ccnc(C(F)(F)F)c2)cc1-c1ccnc(-c2ccnc(NC(=O)CC#N)c2)c1 [Example 39, N-(3-(2′-(2-cyanoacetamido)-[2,4′-bipyridin]-4-yl)-4-methylphenyl)-2-(trifluoromethyl)isonicotinamide] | ≥ 7.00 | 6.00 to 6.30 | – | – | – |
| CNC(=O)c1cc(-c2cncc(-c3cc(NC(=O)c4ccnc(C(F)(F)F)c4)ccc3C)n2)ccn1 [Example 47] | ≥ 7.00 | 5.00 to 6.00 | – | – | – |
| Cc1ccc(NC(=O)c2ccnc(C(F)(F)F)c2)cc1-c1ccnc(-c2ccnc(NC(=O)C3CC3)c2)c1 [Example 54] | ≥ 7.00 | 6.30 to 7.00 | ≥ 7.00 | – | ≥ 7.00 |
| Cc1ccc(NC(=O)c2ccnc(C(C)(C)C#N)c2)cc1-c1ccnc(-c2ccnc(N)c2)c1 [Example 56] | ≥ 7.00 | 6.30 to 7.00 | 6.00 to 6.30 | – | 6.00 to 6.30 |
| COCC(=O)Nc1cc(-c2cccc(-c3cc(NC(=O)c4ccnc(C(F)(F)F)c4)ccc3C)c2)ccn1 [Example 57] | ≥ 7.00 | 6.30 to 7.00 | – | – | – |
| Cc1ccc(NC(=O)c2ccnc(C(F)(F)F)c2)cc1-c1cccc(-c2ccnc(NC(=O)CC#N)c2)c1 [Example 62] | ≥ 7.00 | 6.30 to 7.00 | – | – | – |
| Cc1ccc(NC(=O)c2ccnc(C(C)(C)C#N)c2)cc1-c1ccnc(-c2ccnc(NC(=O)CC#N)c2)c1 [Example 63] | ≥ 7.00 | 6.30 to 7.00 | – | – | ≥ 7.00 |
| CCOc1ncc(-c2cc(NC(=O)c3ccnc(C(F)(F)F)c3)ccc2C)cc1-c1ccnc(NC(C)=O)c1 [Example 68] | ≥ 7.00 | ≥ 7.00 | 6.30 to 7.00 | – | ≥ 7.00 |
| Cc1ncc(NC(=O)c2ccnc(C(F)(F)F)c2)cc1-c1cccc(-c2ccnc(NC(=O)C3CC3)c2)c1 [Example 70] | ≥ 7.00 | 6.30 to 7.00 | – | – | – |
| CNC(=O)c1cc(-c2cccc(-c3cc(NC(=O)c4ccnc(C(F)(F)F)c4)cnc3C)c2)ccn1 [Example 73] | 6.30 to 7.00 | 5.00 to 6.00 | – | – | – |
| CC(=O)Nc1cc(-c2cc(-c3cc(NC(=O)c4ccnc(C(C)(C)C#N)c4)c(F)cc3C)ccn2)ccn1 [Example 75] | ≥ 7.00 | ≥ 7.00 | – | – | – |
| CNC(=O)c1cc(-c2nccc(-c3cc(NC(=O)c4ccnc(C(C)(C)C#N)c4)ccc3C)n2)ccn1 [Example 78] | 6.30 to 7.00 | ≥ 7.00 | – | – | ≥ 7.00 |
| CC(=O)Nc1cc(-c2cccc(-c3cc(NC(=O)c4ccnc(C(C)(C)C#N)c4)ccc3C)c2)ncn1 [Example 79] | ≥ 7.00 | ≥ 7.00 | – | – | – |
| CC(=O)Nc1cc(-c2cc(-c3cc(NC(=O)c4ccnc(C(F)(F)F)c4)ccc3C)ncn2)ccn1 [Example 84] | ≥ 7.00 | 6.30 to 7.00 | – | – | – |
| CC(=O)Nc1cc(-c2cncc(-c3cc(C(=O)Nc4cnn(C(C)C)c4)ccc3C)n2)ccn1 [Example 87] | ≥ 7.00 | 6.00 to 6.30 | – | – | – |
| COCC(=O)Nc1cc(-c2nccc(-c3cc(NC(=O)c4ccnc(C(C)(C)C#N)c4)ccc3C)n2)ccn1 [Example 88] | ≥ 7.00 | ≥ 7.00 | – | – | ≥ 7.00 |
| CC(=O)Nc1cc(-c2cc(-c3cc(NC(=O)c4ccnc(C(C)(C)C#N)c4)ccc3C)nc(C)n2)ccn1 [Example 89] | 6.30 to 7.00 | 6.30 to 7.00 | – | – | ≥ 7.00 |
| Cc1ccc(NC(=O)c2ccnc(C(F)(F)F)c2)cc1-c1cncc(-c2ccnc(N)c2)n1 [Example 90] | 6.30 to 7.00 | 5.00 to 6.00 | – | – | – |
| CNC(=O)c1cc(-c2cnnc(-c3cc(NC(=O)CCC4(F)CC4)cnc3C)c2)ccn1 [Example 374] | – | 5.00 to 6.00 | 5.00 to 6.00 | 5.00 to 6.00 | – |
| Cc1ccc(NC(=O)c2cnn(CC(F)(F)F)c2)cc1-c1cncc(-c2ccnc(C(N)=O)c2)c1 [Example 381] | – | 5.00 to 6.00 | 5.00 to 6.00 | 6.30 to 7.00 | – |
| CNC(=O)c1cc(-c2cncc(-c3cc(NC(=O)c4cnn(CC(F)(F)F)c4)ccc3C)c2)ncn1 [Example 382] | – | 5.00 to 6.00 | 5.00 to 6.00 | 6.30 to 7.00 | – |
| CNC(=O)c1cc(-c2cncc(-c3cc(NC(=O)Cn4cc(C(C)C)nn4)ccc3C)c2)ncn1 [Example 383] | – | 5.00 to 6.00 | 5.00 to 6.00 | 6.30 to 7.00 | – |
